Measurements taken from ChEMBL document CHEMBL1201862, “PubChem BioAssay data set” (2004).
Activity calls are given as the source filed them.

What was measured:
[1] = target: T1, Caspase-3 (Homo sapiens, UniProt P42574); assay: activation of caspase-3 zymogen – biochemical, absorbance, dose response (AID 489014)
T1 sequence (P42574 whole entry): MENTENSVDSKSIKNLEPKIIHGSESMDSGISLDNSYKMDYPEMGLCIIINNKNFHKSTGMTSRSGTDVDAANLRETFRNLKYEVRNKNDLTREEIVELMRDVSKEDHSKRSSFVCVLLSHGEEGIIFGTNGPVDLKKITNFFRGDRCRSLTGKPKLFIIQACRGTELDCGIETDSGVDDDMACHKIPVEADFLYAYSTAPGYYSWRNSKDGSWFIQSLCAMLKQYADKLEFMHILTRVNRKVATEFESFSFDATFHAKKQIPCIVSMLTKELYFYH

[2] = target: Caspase-7 (Homo sapiens, UniProt P55210); assay: activation of caspase-7 zymogen – biochemical, absorbance, counter-screen for procaspase-3 activator project, dose response (AID 489013)
[3] = target: T2, Neuropeptides B/W receptor type 1 (Homo sapiens, UniProt P48145); assay: human NPBW1 receptor blockade, IC50 – cell-based, fluorescence, dose response, late-stage follow-up (AID 463251); format: functional
T2 sequence (P48145 whole entry): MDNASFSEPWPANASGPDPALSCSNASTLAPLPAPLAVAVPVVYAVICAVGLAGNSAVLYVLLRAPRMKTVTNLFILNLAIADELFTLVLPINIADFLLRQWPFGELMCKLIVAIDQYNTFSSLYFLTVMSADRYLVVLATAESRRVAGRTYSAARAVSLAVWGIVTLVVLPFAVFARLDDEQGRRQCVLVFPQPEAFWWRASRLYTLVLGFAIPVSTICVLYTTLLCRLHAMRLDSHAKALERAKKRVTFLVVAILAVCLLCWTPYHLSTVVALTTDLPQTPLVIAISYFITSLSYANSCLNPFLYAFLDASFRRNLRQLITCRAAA

[4] = target: Nucleotide-binding oligomerization domain-containing protein 2 (Homo sapiens, UniProt Q9HC29); assay: PubChem AID 2334; format: functional
Nucleotide-binding oligomerization domain-containing protein 2, sequence (Q9HC29 whole entry, the tested form may be a part): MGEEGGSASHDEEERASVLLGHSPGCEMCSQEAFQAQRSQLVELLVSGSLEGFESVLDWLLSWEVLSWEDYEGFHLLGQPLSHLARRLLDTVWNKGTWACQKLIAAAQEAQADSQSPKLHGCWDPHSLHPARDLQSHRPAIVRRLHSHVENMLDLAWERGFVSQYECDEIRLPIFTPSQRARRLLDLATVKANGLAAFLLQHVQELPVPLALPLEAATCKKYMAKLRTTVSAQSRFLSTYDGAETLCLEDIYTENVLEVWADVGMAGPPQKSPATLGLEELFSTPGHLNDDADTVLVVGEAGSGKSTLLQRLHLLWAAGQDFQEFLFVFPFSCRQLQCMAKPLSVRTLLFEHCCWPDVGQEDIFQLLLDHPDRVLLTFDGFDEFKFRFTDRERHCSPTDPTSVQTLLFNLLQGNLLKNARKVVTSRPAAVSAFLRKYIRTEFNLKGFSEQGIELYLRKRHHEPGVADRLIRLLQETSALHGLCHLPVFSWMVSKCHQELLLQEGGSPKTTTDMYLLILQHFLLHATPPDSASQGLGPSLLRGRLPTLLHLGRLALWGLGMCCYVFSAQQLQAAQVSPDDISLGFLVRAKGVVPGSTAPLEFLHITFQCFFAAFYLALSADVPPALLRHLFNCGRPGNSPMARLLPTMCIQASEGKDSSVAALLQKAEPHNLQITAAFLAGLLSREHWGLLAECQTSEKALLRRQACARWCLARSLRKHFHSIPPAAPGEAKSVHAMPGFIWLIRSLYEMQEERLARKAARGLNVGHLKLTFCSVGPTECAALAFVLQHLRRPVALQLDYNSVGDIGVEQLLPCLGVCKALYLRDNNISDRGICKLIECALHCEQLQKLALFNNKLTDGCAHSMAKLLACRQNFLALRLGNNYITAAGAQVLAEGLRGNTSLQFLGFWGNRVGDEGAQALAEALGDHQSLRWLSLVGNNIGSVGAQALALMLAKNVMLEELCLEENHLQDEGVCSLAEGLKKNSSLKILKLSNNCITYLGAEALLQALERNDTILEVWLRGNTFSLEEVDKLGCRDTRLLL

[5] = target: T3, Nucleotide-binding oligomerization domain-containing protein 1 (Homo sapiens, UniProt Q9Y239); assay: blockers of NOD1 pathway activity – revised, SAR follow-up (AID 2333); format: functional
T3 sequence (Q9Y239 whole entry): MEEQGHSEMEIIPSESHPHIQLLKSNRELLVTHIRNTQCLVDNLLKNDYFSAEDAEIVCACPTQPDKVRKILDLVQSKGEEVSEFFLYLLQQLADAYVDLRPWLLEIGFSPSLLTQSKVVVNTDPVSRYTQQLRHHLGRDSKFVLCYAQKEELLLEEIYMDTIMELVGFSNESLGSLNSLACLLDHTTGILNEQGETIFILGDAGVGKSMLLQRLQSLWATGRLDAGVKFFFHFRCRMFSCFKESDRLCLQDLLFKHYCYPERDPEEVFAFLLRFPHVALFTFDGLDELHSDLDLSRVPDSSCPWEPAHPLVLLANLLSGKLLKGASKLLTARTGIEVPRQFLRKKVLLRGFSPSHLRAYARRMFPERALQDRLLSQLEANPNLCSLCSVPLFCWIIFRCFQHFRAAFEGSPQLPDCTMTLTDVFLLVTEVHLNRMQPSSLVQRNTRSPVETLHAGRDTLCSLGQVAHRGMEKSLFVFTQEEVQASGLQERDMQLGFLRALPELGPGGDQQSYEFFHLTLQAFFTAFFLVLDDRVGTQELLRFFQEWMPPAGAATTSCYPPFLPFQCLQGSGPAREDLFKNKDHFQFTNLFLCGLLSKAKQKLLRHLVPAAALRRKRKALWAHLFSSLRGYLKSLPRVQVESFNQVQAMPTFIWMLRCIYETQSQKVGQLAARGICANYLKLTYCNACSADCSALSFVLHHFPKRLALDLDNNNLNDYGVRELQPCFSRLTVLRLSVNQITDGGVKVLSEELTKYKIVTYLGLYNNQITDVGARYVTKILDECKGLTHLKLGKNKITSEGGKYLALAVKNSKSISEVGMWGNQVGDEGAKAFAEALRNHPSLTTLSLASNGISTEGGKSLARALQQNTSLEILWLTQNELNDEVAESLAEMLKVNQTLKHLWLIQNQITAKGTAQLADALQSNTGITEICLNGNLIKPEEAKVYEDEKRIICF

[6] = test system: HEK293; assay: cells; details: Homo sapiens;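 further: cells exposed to compound for 14 hours overnight before viability readout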
[7] = target: Tumor necrosis factor (Homo sapiens, UniProt P01375); assay: analog potency on TNFa NF-kB signaling – cell-based, revised, SAR follow-up (AID 2337); format: functional
Tumor necrosis factor, sequence (P01375 whole entry): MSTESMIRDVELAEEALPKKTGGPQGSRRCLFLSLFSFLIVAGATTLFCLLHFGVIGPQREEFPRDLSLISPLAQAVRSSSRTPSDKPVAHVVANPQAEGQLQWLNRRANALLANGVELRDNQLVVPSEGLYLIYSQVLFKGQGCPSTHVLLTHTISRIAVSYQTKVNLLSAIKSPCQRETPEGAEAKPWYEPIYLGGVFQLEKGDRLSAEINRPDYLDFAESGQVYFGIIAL

[8] = target: X-box-binding protein 1 (Homo sapiens, UniProt P17861); format: functional, Cricetulus griseus;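 further: confirmatory dose-response counter-screen serving a CHOP assay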
[9] = target: Beta-2 adrenergic receptor (Homo sapiens, UniProt P07550); assay: ADRB2 activation measured by internalization – cell-based, FAP fluorogen, flow cytometry, cherry pick 1, dose response (AID 588763); format: functional
[10] = target: Melanin-concentrating hormone receptor 1 (Homo sapiens, UniProt Q99705); assay: Late-stage fluorescence-based counterscreen for antagonists of the G-protein coupled receptor 7 (GPR7): cell-based dose response assay to identify antagonists of the melanin-concentrating hormone receptor 1 (MCHR1). [Related pubchem assays (depositor defined):AID1861, AID1880, AID1952, AID2148, AID2251, AID2257, AID485339]; format: functional;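 further: stimulated with 30 nM MCH peptide agonist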
[11] = target: Bcl-2-like protein 10 (Homo sapiens, UniProt Q9HD36); assay: Bcl-B/TR3 peptide binding disruption – biochemical, fluorescence polarization, FITC-TR3 peptide, selectivity assay for Bfl-1 inhibitor project, primary screen (AID 748);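 further: fluorescence polarization from a fluorescein-labelled TR3 peptide binding purified Bcl-B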
Bcl-2-like protein 10, sequence (Q9HD36 whole entry): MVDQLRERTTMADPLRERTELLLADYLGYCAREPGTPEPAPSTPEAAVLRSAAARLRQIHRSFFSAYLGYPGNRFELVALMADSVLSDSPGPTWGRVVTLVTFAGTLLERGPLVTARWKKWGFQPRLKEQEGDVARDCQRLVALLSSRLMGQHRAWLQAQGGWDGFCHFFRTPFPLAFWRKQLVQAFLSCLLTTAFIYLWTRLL

[12] = target: G-protein coupled receptor 35 (Homo sapiens, UniProt Q9HC97); assay: inhibition of zaprinast-stimulated GPR35 beta-arrestin translocation – imaging, U2OS, beta-arrestin-GFP, zaprinast agonist, primary screen (AID 2058); format: functional;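 further: antagonist potency meaning inhibition of agonist-induced arrestin redistribution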
[13] = target: DNA dC->dU-editing enzyme APOBEC-3G (Homo sapiens, UniProt Q9HC16); assay: Dose Response confirmation of small molecule APOBEC3G DNA Deaminase Inhibitors via a fluorescence-based single-stranded DNA deaminase assay. [Related pubchem assays (depositor defined):AID493012, AID493028]; format: functional
DNA dC->dU-editing enzyme APOBEC-3G, sequence (Q9HC16 whole entry, the tested form may be a part): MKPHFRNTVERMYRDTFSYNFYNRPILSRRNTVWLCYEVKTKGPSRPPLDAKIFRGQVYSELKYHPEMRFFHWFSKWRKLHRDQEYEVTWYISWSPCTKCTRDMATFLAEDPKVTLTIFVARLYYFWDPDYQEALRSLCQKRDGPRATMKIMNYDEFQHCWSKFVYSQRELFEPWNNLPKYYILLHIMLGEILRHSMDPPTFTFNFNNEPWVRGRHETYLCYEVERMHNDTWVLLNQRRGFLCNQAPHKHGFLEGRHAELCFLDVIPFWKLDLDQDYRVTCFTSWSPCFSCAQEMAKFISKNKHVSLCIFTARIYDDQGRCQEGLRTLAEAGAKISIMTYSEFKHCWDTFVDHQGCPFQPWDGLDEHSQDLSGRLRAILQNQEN

[14] = target: T4, Polyadenylate-binding protein 1 (Homo sapiens, UniProt P11940); assay: MLLE domain peptide-binding blockers, IC50 – biochemical, fluorescence polarization, FITC-PAM2 peptide, dose response (AID 602259); format: functional; details: read-out: IC50_Mean
T4 sequence (P11940 whole entry, the tested form may be a part): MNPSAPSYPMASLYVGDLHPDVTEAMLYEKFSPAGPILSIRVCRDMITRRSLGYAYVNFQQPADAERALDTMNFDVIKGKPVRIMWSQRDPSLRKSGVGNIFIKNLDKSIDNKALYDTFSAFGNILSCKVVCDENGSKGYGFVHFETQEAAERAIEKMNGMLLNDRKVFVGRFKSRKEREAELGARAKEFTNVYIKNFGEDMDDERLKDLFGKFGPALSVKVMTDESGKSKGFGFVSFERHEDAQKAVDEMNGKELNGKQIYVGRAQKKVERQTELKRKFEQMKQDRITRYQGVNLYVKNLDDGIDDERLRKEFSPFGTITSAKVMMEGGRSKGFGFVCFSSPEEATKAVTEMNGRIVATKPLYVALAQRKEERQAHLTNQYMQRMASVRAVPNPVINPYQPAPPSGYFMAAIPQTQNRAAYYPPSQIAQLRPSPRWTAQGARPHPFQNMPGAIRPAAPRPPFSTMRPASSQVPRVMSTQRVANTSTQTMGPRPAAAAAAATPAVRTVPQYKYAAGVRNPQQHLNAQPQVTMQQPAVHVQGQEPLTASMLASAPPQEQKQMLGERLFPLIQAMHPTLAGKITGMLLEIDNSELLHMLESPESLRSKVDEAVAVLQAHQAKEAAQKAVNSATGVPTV

[15] = target: T4, Polyadenylate-binding protein 1; assay: MLLE binding blockers, Cy5 peptide tracer – biochemical, fluorescence polarization, Cy5-PAM2 peptide, secondary, miRNA deadenylation inhibitor project, dose response (AID 602260); format: functional; details: read-out: IC50_Mean
[16] = target: Aryl hydrocarbon receptor (Homo sapiens, UniProt P35869); assay: Luminescence-based cell-based high throughput dose response assay for activators of the Aryl Hydrocarbon Receptor (AHR). [Related pubchem assays: 2796 (Primary screen (AHR activators in singlicate)), 2845 (Confirmation screen (AHR activators in triplicate)), 434939 (Counterscreen (PXR activators in triplicate)), 2804 (Summary (AHR activators))]; format: ADME
[17] = target: Eukaryotic translation initiation factor 4E (Mus musculus, UniProt P63073); assay: blockers of eIF4G binding by eIF4E – biochemical, TR-FRET, dose response (AID 855); format: functional;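 further: potency for disrupting eIF4E binding to eIF4GI seen as loss of FRET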
Eukaryotic translation initiation factor 4E, sequence (P63073 whole entry): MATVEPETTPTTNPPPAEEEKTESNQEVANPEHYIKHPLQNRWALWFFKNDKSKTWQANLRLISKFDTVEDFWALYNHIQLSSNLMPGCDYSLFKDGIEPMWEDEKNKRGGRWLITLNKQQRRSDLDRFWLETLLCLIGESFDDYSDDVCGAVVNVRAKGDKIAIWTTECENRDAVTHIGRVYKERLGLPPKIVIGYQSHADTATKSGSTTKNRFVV

[18] = luciferase reporter signal suppression in cells – H4 neuroglioma cells, luminescence, dose response (AID 1990); format: functional, cell-based
[19] = alpha-synuclein stem-loop luciferase translation blockers – H4 neuroglioma cells, luminescence, confirmation (AID 1988); format: functional, cell-based
[20] = target: Voltage-dependent T-type calcium channel subunit alpha-1H (Homo sapiens, UniProt O95180); format: functional;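 further: channel activity triggered by adding a high calcium stimulation buffer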
Voltage-dependent T-type calcium channel subunit alpha-1H, sequence (O95180 whole entry): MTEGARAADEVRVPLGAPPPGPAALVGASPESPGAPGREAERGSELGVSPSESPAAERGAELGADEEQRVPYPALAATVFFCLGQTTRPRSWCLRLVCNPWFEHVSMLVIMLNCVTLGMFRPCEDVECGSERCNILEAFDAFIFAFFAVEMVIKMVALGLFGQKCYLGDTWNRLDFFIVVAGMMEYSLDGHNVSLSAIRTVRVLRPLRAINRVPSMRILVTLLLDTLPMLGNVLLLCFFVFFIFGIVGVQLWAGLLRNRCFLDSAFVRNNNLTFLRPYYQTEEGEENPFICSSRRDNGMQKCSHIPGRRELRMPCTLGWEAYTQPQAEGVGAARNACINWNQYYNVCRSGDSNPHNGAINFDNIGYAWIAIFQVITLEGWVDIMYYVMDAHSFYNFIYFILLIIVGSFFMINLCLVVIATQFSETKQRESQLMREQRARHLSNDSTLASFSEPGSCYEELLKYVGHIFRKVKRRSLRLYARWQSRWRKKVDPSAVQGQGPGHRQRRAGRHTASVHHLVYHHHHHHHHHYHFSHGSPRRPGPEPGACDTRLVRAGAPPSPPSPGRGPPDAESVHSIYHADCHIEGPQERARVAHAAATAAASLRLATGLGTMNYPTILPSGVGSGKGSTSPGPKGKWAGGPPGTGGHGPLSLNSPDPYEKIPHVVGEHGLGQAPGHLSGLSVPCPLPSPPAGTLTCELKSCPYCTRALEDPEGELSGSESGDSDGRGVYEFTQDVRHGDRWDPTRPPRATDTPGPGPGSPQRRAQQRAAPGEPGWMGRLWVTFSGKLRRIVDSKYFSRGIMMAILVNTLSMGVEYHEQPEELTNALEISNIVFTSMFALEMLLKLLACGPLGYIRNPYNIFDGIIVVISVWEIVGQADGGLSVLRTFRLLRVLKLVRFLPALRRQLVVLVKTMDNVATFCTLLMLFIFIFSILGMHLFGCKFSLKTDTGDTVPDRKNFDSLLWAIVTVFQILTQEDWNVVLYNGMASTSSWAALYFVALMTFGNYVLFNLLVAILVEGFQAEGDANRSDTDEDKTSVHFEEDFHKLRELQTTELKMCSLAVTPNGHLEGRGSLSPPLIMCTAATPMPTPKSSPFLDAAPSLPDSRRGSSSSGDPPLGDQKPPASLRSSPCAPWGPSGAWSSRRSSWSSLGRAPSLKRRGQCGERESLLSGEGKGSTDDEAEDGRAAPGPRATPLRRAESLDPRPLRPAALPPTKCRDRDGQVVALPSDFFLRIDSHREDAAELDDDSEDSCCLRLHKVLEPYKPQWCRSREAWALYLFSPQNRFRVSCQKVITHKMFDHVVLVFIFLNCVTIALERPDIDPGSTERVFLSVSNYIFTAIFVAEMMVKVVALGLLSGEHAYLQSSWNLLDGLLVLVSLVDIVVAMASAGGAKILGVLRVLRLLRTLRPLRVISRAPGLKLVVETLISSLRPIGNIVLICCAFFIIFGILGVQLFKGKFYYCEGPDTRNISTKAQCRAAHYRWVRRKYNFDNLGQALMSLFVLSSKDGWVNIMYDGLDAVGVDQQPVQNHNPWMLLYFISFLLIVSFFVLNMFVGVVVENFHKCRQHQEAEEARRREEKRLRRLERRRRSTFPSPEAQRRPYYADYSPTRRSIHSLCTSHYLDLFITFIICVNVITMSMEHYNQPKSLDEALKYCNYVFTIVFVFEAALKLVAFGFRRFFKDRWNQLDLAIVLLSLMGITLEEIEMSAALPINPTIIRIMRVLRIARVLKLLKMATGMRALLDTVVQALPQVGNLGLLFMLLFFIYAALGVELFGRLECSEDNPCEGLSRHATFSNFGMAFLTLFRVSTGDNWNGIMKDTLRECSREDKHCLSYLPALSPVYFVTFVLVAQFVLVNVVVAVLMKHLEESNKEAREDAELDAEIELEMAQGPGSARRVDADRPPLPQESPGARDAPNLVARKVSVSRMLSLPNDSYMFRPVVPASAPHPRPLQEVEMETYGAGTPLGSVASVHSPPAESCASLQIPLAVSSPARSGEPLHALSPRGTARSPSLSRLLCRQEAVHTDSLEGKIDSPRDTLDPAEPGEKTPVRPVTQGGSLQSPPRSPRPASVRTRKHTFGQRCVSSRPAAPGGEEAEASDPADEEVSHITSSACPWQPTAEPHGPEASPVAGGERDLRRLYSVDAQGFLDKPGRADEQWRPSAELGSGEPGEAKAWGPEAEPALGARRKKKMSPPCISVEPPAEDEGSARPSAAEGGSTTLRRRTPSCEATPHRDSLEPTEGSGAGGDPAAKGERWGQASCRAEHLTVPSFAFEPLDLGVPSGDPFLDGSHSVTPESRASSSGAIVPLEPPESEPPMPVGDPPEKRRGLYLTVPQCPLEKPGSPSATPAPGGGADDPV

[21] = Luminescence Cell-Based Dose Response HTS to Identify Inhibitors of 5'UTR Stem-Loop Driven Prion Protein mRNA Translation in H4 Neuroglioblastoma Cells. [Related pubchem assays: 1827 (Project Summary), 1813 (Primary HTS)]; format: functional

For `Cc1ccc(-c2cc(C(F)(F)F)c(C#N)c(SCCC#N)n2)o1`, the EC50 [1] was > 85.2 µM (inactive) and the EC50 [2] was > 85.2 µM (inactive).
In the case of `CCOc1ccc(COc2c(Cl)cnn(-c3ccc(C)cc3)c2=O)cc1OCC`, the IC50 [3] is reported as > 20 µM (inactive).
For `Cc1ccc(O)c(N=Cc2cc(Cc3ccccc3)cc([N+](=O)[O-])c2O)c1`, the IC50 [4] was > 20 µM (inactive), the IC50 [5] was > 20 µM (inactive) and the IC50 [6] was > 20 µM (inactive). For the same molecule, the IC50 [7] was > 20 µM (inactive).
For `CCN(CCO)c1ncnc2c1sc1nc(CC(C)C)c3c(c12)CC(C)(C)OC3`, the “Absolute IC50 (XBP1)” value [8] was 10 µM and the EC50 [9] was 0.0454 µM (active).
With `COc1cc(F)ccc1Oc1c(Cl)cnn(-c2ccc(C)cc2)c1=O` the IC50 [10] was 9.5 µM (active) and the IC50 [3] was 9.7 µM (active).
In the case of `Cc1ccc(NC(=O)Nc2cccs2)c(Cl)c1`, the IC50 [11] is reported as > 100 µM (inactive).
For `CN1C=CC2=C(C#N)C(N)C(C#N)(C#N)C(c3ccccc3)C2C1` (stereo not drawn), the IC50 [12] was 1.01 µM (active).
In the case of `O=C(Nc1ccc(N2CCOCC2)c(S(=O)(=O)Nc2ccc(Cl)cc2)c1)c1cnccn1`, the IC50 [13] is reported as 51.6 µM (active), the IC50 [14] is reported as > 66 µM (inactive) and the IC50 [15] is reported as > 66 µM (inactive).
For `Cc1cc(C)c(NC(=O)c2cc3c(nc4sccn43)s2)c(C)c1`, the IC50 [11] was > 100 µM (inactive).
In the case of `O=C(N/N=C/c1c[nH]c2ccccc12)C1COc2ccccc2O1` (stereo not drawn), the EC50 [16] is reported as 5.67 µM (active) and the IC50 [17] is reported as > 64 µM (inactive).
In the case of `CCc1nnc(NC(=O)CSc2nnc(C3CCCCC3)n2-c2cccc(Cl)c2)s1`, the EC50 [18] is reported as > 120 µM (not active), the EC50 [19] is reported as > 120 µM (not active) and the EC50 [20] is reported as 7.01 µM (active). For the same molecule, the EC50 [21] was > 120 µM (not active).
